Reference: patent US8397806B2, “Method for pre-treatment of subterranean sites adjacent to water injection wells” (E.I. du Pont de Nemours and Company, priority 2010, dated 2013)

How the values were obtained:
[1] = Example 5: 10% acetic acid titration of amine-coated core sand (30.85 gr sand/amine mixture) in 100 ml brine #2, amine in solution by GC
Protocol: (§1) Concentration of amines, in media and water, were analyzed by gas chromatography (GC). An Agilent Model 5890 (Agilent, Wilmington, Del.), GC equipped with a […] and a split/splitless injector, a DB-FFAP column (30 meter length×0.32 millimeter (mm) […]×0.25 micrometer particle size). […] The system was calibrated using a sample of N,N-Dimethyl-1-Dodecaneamine (Aldrich). Helium was used as the carrier gas. A temperature gradient of 50 degrees Celsius (° C.) to 250° C. at 30° C. increase per minute (min) was used.
The same procedure outlined in Example 4 was repeated here to produce the sand/amine mixture. 30.85 grams (gr) of the sand/amine mixture was added to 100 ml of brine #2 (Table 3) to create the sand/amine/brine mixture.

[2] = Example 2: 1N HCl titration of amine-coated core sand (38 mg amine on 10.18 gr sand) in 100 ml brine #2, amine in solution by GC; format: physicochemical
Protocol: Helium was used as the carrier gas.
38 milligrams (mg) of N N-Dimethyl-1-Dodecanamine (hereafter referred to as “the amine”) was added to 10.210 gr of Pentane. This solution was added to 10.1845 gr of specific sand layers (Oa and Ob) obtained from the Schrader Bluff formation of the Milne Point Unit of the Alaskan North slope. The oil content of the sand was first removed using a mixture of methanol and toluene (50/50, volume/volume) as solvent washes. The solvent mixture was subsequently evaporated off the core sand to produce clean, dry, flowable core sand. This sand was mixed with the amine and pentane solution to produce a slurry. This slurry was thoroughly mixed and the pentane was evaporated off leaving the amine on the sand (hereafter referred to as sand/amine mixture). 100 ml of brine #2 (Table 3) was added to the sand/amine mixture to create the sand/amine/brine mixture. […] The fact that the amine was not detected underlined its strong binding to the sand particles. […] The data underlines the remarkable efficiency of an acid at ionizing and removing the amine from the sand.

[3] = Example 4: 10% nitric acid titration of amine-coated core sand (29.065 gr sand/amine mixture) in 100 ml brine #2, amine in solution by GC
Protocol: as §1
The procedure outlined in Example 2 was used to produce the sand/amine mixture except that 519 mg of the amine, 10 gr of Pentane. and 60.062 gr of sand from the Oa and Ob layers were used. 29.065 gr of this sand/amine mixture was added to 100 ml of brine #2 (Table 3) to create the sand/amine/brine mixture. […] The concentration of the amine in the water should have been about […] if all the amine was dissolved in brine #2. […] 0.1 ml of 10 weight percent (wt %) nitric acid in water was added to this solution, and the pH and the amine concentration were measured again.

In the case of `CCCCCCCCCCCCN(C)C` [N-N-dimethyl-1-dodeanamine, N N-Dimethyl-1-Dodecanamine], the “ppm N-N-dimethyl-1-dodeanamine” value ([1]; sample 1, pH 8.01, +0.1 ml 10% acetic acid) is reported as 63 ppm, the “ppm N-N-dimethyl-1-dodeanamine” value ([1]; sample 2, pH 7.41, +0.1 ml 10% acetic acid) is reported as 107 ppm and the “ppm N-N-dimethyl-1-dodeanamine” value ([1]; sample 3, pH 7.4, +0.1 ml 10% acetic acid) is reported as 215 ppm. For the same compound, the “ppm N-N-dimethyl-1-dodeanamine” value ([1]; sample 4, pH 7.37, +0.1 ml 10% acetic acid) was 497 ppm, the “ppm N-N-dimethyl-1-dodeanamine” value ([1]; sample 5, pH 7.23, +0.1 ml 10% acetic acid) was 512 ppm and the “ppm N-N-dimethyl-1-dodeanamine” value ([1]; sample 6, pH 7.12, +0.1 ml 10% acetic acid) was 969 ppm. The “ppm N-N-dimethyl-1-dodeanamine” value ([1]; sample 7, pH 6.98, +0.1 ml 10% acetic acid) was 1239 ppm, the “ppm N-N-dimethyl-1-dodeanamine” value ([1]; sample 8, pH 6.89, +0.1 ml 10% acetic acid) was 1453 ppm and the “ppm N-N-dimethyl-1-dodeanamine” value ([1]; sample 9, pH 6.75, +0.1 ml 10% acetic acid) was 1583 ppm. For the same compound, the “ppm N-N-dimethyl-1-dodeanamine” value ([1]; sample 10, pH 6.56, +0.1 ml 10% acetic acid) was 1579 ppm, the “ppm N-N-dimethyl-1-dodeanamine” value ([1]; sample 11, pH 6.39, +0.1 ml 10% acetic acid) was 1616 ppm and the “ppm N-N-dimethyl-1-dodeanamine” value ([1]; sample 12, pH 6.4, +0.1 ml 10% acetic acid) was 1759 ppm. For the same compound, the “ppm N-N-dimethyl-1-dodeanamine” value ([1]; sample 13, pH 6.02, +0.2 ml 10% acetic acid) was 1736 ppm, the “ppm N-N-dimethyl-1-dodeanamine” value ([1]; sample 14, pH 5.4, +0.2 ml 10% acetic acid) was 1718 ppm and the “ppm N-N-dimethyl-1-dodeanamine” value ([1]; sample 15, pH 5.04, +0.2 ml 10% acetic acid) was 1743 ppm. The “ppm N-N-dimethyl-1-dodeanamine” value ([1]; sample 16, pH 4.86, +0.2 ml 10% acetic acid) was 1931 ppm, the “ppm N-N-dimethyl-1-dodeanamine” value ([1]; sample 17, pH 4.73, +0.2 ml 10% acetic acid) was 1995 ppm and the “ppm N-N-dimethyl-1-dodeanamine” value ([1]; sample 18, pH 4.61, +0.2 ml 10% acetic acid) was 1913 ppm. The “ppm N-N-dimethyl-1-dodeanamine” value ([1]; sample 19, pH 4.52, +0.2 ml 10% acetic acid) was 1881 ppm, the “ppm N-N-dimethyl-1-dodeanamine” value ([1]; sample 20, pH 4.43, +0.2 ml 10% acetic acid) was 1837 ppm and the “ppm N-N-dimethyl-1-dodeanamine” value ([1]; sample 21, pH 4.36, +0.3 ml 10% acetic acid) was 1885 ppm. For the same compound, the “ppm N-N-dimethyl-1-dodeanamine” value ([1]; sample start, pH 8.52, 0 ml 10% acetic acid) was about 67 ppm, the “pH at which complete ionization and solubilization in the water of the amine was observed” value ([1]; titration with 10 wt % acetic acid) was under 6.7 and the “First derivative (change in amine/change in pH)” value ([2]; sample Amine titrate 1, pH 7.37) was 63.75. The “N-N-dimethyl-1-dodeanamine (ppm) in slim tube effluent” value (shortened to “N-N-dimethyl-1-dodeanamine (ppm)”) ([2]; sample Amine titrate 1, pH 7.37, +0.10 ml 1N HCl) was 46.41 ppm, the “First derivative (change in amine/change in pH)” value ([2]; sample Amine titrate 2, pH 7.21) was 63.42 and the “N-N-dimethyl-1-dodeanamine (ppm)” value ([2]; sample Amine titrate 2, pH 7.21, +0.10 ml 1N HCl) was 59.29 ppm. The “First derivative (change in amine/change in pH)” value ([2]; sample Amine titrate 3, pH 7.03) was 24.34, the “N-N-dimethyl-1-dodeanamine (ppm)” value ([2]; sample Amine titrate 3, pH 7.03, +0.10 ml 1N HCl) was 67.97 ppm and the “First derivative (change in amine/change in pH)” value ([2]; sample Amine titrate 4, pH 6.59) was 160.35. For the same compound, the “N-N-dimethyl-1-dodeanamine (ppm)” value ([2]; sample Amine titrate 4, pH 6.59, +0.10 ml 1N HCl) was 74.38 ppm, the “First derivative (change in amine/change in pH)” value ([2]; sample Amine titrate 5, pH 6.13) was 412.18 and the “N-N-dimethyl-1-dodeanamine (ppm)” value ([2]; sample Amine titrate 5, pH 6.13, +0.10 ml 1N HCl) was 212.28 ppm. The “First derivative (change in amine/change in pH)” value ([2]; sample Amine titrate 6, pH 6.07) was 679.86, the “N-N-dimethyl-1-dodeanamine (ppm)” value ([2]; sample Amine titrate 6, pH 6.07, +0.10 ml 1N HCl) was 288.72 ppm and the “First derivative (change in amine/change in pH)” value ([2]; sample Amine titrate 7, pH 6.04) was −148.78. The “N-N-dimethyl-1-dodeanamine (ppm)” value ([2]; sample Amine titrate 7, pH 6.04, +0.05 ml 1N HCl) was 273.47 ppm, the “First derivative (change in amine/change in pH)” value ([2]; sample Amine titrate 8, pH 5.98) was 119.35 and the “N-N-dimethyl-1-dodeanamine (ppm)” value ([2]; sample Amine titrate 8, pH 5.98, +0.05 ml 1N HCl) was 275.33 ppm. The “First derivative (change in amine/change in pH)” value ([2]; sample Amine titrate 9, pH 5.79) was 65.90, the “N-N-dimethyl-1-dodeanamine (ppm)” value ([2]; sample Amine titrate 9, pH 5.79, +0.05 ml 1N HCl) was 303.31 ppm and the “First derivative (change in amine/change in pH)” value ([2]; sample Amine titrate 10, pH 5.39) was 15.17. The “N-N-dimethyl-1-dodeanamine (ppm)” value ([2]; sample Amine titrate 10, pH 5.39, +0.05 ml 1N HCl) was 314.21 ppm, the “First derivative (change in amine/change in pH)” value ([2]; sample Amine titrate 11, pH 4.13) was 3.24 and the “N-N-dimethyl-1-dodeanamine (ppm)” value ([2]; sample Amine titrate 11, pH 4.13, +0.05 ml 1N HCl) was 328.48 ppm. The “First derivative (change in amine/change in pH)” value ([2]; sample Amine titrate 12, pH 3.19) was 11.80, the “N-N-dimethyl-1-dodeanamine (ppm)” value ([2]; sample Amine titrate 12, pH 3.19, +0.05 ml 1N HCl) was 321.33 ppm and the “First derivative (change in amine/change in pH)” value ([2]; sample Amine titrate 13, pH 2.91) was 47.42. For the same compound, the “N-N-dimethyl-1-dodeanamine (ppm)” value ([2]; sample Amine titrate 13, pH 2.91, +0.05 ml 1N HCl) was 342.88 ppm, the “First derivative (change in amine/change in pH)” value ([2]; sample Amine titrate 14, pH 2.74) was −6.52 and the “N-N-dimethyl-1-dodeanamine (ppm)” value ([2]; sample Amine titrate 14, pH 2.74, +0.05 ml 1N HCl) was 342.67 ppm. For the same compound, the “First derivative (change in amine/change in pH)” value ([2]; sample Amine titrate 15, pH 2.61) was 79.86, the “N-N-dimethyl-1-dodeanamine (ppm)” value ([2]; sample Amine titrate 15, pH 2.61, +0.05 ml 1N HCl) was 340.92 ppm and the “First derivative (change in amine/change in pH)” value ([2]; sample Amine titrate 16, pH 2.41) was 80.22. The “N-N-dimethyl-1-dodeanamine (ppm)” value ([2]; sample Amine titrate 16, pH 2.41, +0.10 ml 1N HCl) was 369.02 ppm, the “First derivative (change in amine/change in pH)” value ([2]; sample Amine titrate 17, pH 2.27) was 2.25 and the “N-N-dimethyl-1-dodeanamine (ppm)” value ([2]; sample Amine titrate 17, pH 2.27, +0.10 ml 1N HCl) was 368.19 ppm. For the same compound, the “First derivative (change in amine/change in pH)” value ([2]; sample Amine titrate 18, pH 2.18) was 7.51, the “N-N-dimethyl-1-dodeanamine (ppm)” value ([2]; sample Amine titrate 18, pH 2.18, +0.10 ml 1N HCl) was 369.54 ppm and the “First derivative (change in amine/change in pH)” value ([2]; sample Amine titrate 19, pH 2.10) was 0.12. For the same compound, the “N-N-dimethyl-1-dodeanamine (ppm)” value ([2]; sample Amine titrate 19, pH 2.10, +0.10 ml 1N HCl) was 369.47 ppm, the “N-N-dimethyl-1-dodeanamine (ppm)” value ([2]; sample Amine titrate 20, pH 2.04, +0.10 ml 1N HCl) was 369.56 ppm and the “N-N-dimethyl-1-dodeanamine (ppm)” value ([2]; sample Amine titrate st, pH 8.14, 0.00 ml 1N HCl) was 0.00 ppm. The “N-N-dimethyl-1-dodeanamine (ppm)” value ([2]; sample Amine titrate st, pH 8.14, 0.00 ml 1N HCl, listed as N N-Dimethyl-1-Dodecanamine) was under 1 ppm, the “pH at which complete ionization and solubilization of the amine in the water was observed” value ([2]; titration with 1N HCl) was under 6.0 and the “ppm N-N-dimethyl-1-dodeanamine” value ([3]; sample 1, pH 8.13, +0.1 ml 10% HNO3) was 110 ppm. The “ppm N-N-dimethyl-1-dodeanamine” value ([3]; sample 2, pH 7.72, +0.1 ml 10% HNO3) was 211 ppm, the “ppm N-N-dimethyl-1-dodeanamine” value ([3]; sample 3, pH 7.42, +0.1 ml 10% HNO3) was 216 ppm and the “ppm N-N-dimethyl-1-dodeanamine” value ([3]; sample 4, pH 7.25, +0.1 ml 10% HNO3) was 235 ppm. For the same compound, the “ppm N-N-dimethyl-1-dodeanamine” value ([3]; sample 5, pH 7.2, +0.1 ml 10% HNO3) was 540 ppm, the “ppm N-N-dimethyl-1-dodeanamine” value ([3]; sample 6, pH 7.29, +0.1 ml 10% HNO3) was 745 ppm and the “ppm N-N-dimethyl-1-dodeanamine” value ([3]; sample 7, pH 7.33, +0.1 ml 10% HNO3) was 1153 ppm. The “ppm N-N-dimethyl-1-dodeanamine” value ([3]; sample 8, pH 7.29, +0.1 ml 10% HNO3) was 1210 ppm, the “ppm N-N-dimethyl-1-dodeanamine” value ([3]; sample 9, pH 7.18, +0.1 ml 10% HNO3) was 1327 ppm and the “ppm N-N-dimethyl-1-dodeanamine” value ([3]; sample 10, pH 7.11, +0.1 ml 10% HNO3) was 1315 ppm. The “ppm N-N-dimethyl-1-dodeanamine” value ([3]; sample 11, pH 6.99, +0.1 ml 10% HNO3) was 1413 ppm, the “ppm N-N-dimethyl-1-dodeanamine” value ([3]; sample 12, pH 6.85, +0.1 ml 10% HNO3) was 1667 ppm and the “ppm N-N-dimethyl-1-dodeanamine” value ([3]; sample 13, pH 6.73, +0.1 ml 10% HNO3) was 1897 ppm. For the same compound, the “ppm N-N-dimethyl-1-dodeanamine” value ([3]; sample 14, pH 6.64, +0.1 ml 10% HNO3) was 1853 ppm, the “ppm N-N-dimethyl-1-dodeanamine” value ([3]; sample 15, pH 6.59, +0.1 ml 10% HNO3) was 1858 ppm and the “ppm N-N-dimethyl-1-dodeanamine” value ([3]; sample 16, pH 6.28, +0.2 ml 10% HNO3) was 1788 ppm. The “ppm N-N-dimethyl-1-dodeanamine” value ([3]; sample 17, pH 5.8, +0.2 ml 10% HNO3) was 1822 ppm, the “ppm N-N-dimethyl-1-dodeanamine” value ([3]; sample 18, pH 3.46, +0.2 ml 10% HNO3) was 1975 ppm and the “ppm N-N-dimethyl-1-dodeanamine” value ([3]; sample start, pH 8.28, 0 ml 10% HNO3) was about 85 ppm. The “pH at which complete ionization and solubilization in the water of the amine was observed” value ([3]; titration with 10 wt % nitric acid) was under 6.7.
